Drawing on BindingDB's records for doi:10.1007/bfb0000613 (German Institute of Human Nutrition, 1998), this text covers Ki for 19 molecules.

“And” between values parts separate entries of the source, which are not always exact repeats. Equal entries are not always repeated. *1 amine or outer side, *2 acyl side, *3 side chain or, on linkers, in order; H or OH if unused. Where a SMILES comes first, the peptide text is derived from it. Bridges are numbered along the chain shown (N, C = ends). [ ]: non-standard residue; d: D form. ξ: configuration not given here. Phe(4-CH2NHiPr) = CC(C)NCc1ccc(C[C@H](N)C(=O)O)cc1; X2 = CC(C)NCc1ccc(C[C@@H](N[*:1])C(=O)[*:2])cc1; d1Nal = N[C@H](Cc1cccc2ccccc12)C(=O)O; Thr(3ξ) = CC(O)[C@H](N)C(=O)O; ξF = NC(Cc1ccccc1)C(=O)O; ξK = NCCCCC(N)C(=O)O; ξT = CC(O)C(N)C(=O)O; Ahp = NCCCCCCC(=O)O

Assay [1] concerns the target Somatostatin receptor type 3 (Rattus norvegicus, UniProt P30936).
For assay [2], the target named is Somatostatin receptor type 2 (Rattus norvegicus, UniProt P30680).
Assay [3] addresses Somatostatin receptor type 4 (Homo sapiens, UniProt P31391).
The target of assay [4] is Somatostatin receptor type 1 (Homo sapiens, UniProt P30872).
The target in assay [5] is T1, Somatostatin receptor type 5 (Rattus norvegicus, UniProt P30938).
T1 sequence (P30938 whole entry): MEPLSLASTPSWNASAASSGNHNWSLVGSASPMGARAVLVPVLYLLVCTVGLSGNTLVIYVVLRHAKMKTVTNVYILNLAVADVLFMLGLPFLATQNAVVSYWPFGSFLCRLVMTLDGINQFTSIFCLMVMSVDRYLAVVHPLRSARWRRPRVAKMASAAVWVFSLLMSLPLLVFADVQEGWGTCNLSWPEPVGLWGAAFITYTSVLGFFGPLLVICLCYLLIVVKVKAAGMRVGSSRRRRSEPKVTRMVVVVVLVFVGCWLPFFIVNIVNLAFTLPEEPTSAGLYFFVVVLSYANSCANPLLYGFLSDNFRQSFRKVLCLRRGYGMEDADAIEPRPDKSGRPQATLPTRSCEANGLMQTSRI

The target in assay [6] is Somatostatin receptor type 2 (Mus musculus, UniProt P30875).
The target of assay [7] is Somatostatin receptor type 5 (Homo sapiens, UniProt P35346).
In assay [8] the target is Somatostatin receptor type 2 (Homo sapiens, UniProt P30874).
Chain of Somatostatin receptor type 2 (Homo sapiens, UniProt P30874) (P30874 whole entry): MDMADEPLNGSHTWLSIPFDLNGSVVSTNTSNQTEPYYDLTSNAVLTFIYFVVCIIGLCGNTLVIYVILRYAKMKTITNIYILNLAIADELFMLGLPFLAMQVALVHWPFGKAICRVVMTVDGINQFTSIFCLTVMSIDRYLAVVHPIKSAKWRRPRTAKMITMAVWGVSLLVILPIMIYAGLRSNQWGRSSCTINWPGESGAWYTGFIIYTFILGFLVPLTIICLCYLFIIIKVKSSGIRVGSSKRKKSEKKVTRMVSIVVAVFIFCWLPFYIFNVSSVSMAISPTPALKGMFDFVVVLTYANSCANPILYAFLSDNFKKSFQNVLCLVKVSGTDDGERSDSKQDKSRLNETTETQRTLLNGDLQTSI

Chain of Somatostatin receptor type 5 (Homo sapiens, UniProt P35346) (P35346 whole entry): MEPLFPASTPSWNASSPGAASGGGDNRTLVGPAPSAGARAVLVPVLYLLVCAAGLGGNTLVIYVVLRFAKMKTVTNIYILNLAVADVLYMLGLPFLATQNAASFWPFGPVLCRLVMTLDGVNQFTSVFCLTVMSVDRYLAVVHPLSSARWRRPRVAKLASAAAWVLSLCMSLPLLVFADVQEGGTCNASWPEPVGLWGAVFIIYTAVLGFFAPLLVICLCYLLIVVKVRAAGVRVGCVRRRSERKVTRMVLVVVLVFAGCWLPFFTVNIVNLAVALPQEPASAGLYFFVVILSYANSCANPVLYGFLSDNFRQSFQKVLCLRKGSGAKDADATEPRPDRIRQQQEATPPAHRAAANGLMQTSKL
Chain of Somatostatin receptor type 2 (Rattus norvegicus, UniProt P30680) (P30680 whole entry): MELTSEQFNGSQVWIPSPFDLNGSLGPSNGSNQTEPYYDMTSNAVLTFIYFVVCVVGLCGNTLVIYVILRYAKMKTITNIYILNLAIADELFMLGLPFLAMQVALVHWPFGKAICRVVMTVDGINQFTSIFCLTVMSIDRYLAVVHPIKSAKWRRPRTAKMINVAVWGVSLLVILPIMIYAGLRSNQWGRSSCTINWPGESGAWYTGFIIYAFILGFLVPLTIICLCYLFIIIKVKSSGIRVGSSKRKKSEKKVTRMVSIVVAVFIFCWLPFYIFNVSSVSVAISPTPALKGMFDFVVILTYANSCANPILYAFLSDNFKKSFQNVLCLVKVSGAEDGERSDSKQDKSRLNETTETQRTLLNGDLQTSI
Chain of Somatostatin receptor type 4 (P31391 whole entry): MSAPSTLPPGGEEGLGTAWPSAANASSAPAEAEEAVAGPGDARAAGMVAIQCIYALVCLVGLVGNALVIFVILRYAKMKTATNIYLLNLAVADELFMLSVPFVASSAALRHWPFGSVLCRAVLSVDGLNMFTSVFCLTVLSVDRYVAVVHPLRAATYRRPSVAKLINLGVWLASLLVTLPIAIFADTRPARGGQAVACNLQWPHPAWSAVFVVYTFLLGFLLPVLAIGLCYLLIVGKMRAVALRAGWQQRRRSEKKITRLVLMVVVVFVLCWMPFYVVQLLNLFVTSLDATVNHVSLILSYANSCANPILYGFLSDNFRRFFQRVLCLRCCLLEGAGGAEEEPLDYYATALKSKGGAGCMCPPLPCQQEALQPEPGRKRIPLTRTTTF
Chain of Somatostatin receptor type 1 (P30872 whole entry): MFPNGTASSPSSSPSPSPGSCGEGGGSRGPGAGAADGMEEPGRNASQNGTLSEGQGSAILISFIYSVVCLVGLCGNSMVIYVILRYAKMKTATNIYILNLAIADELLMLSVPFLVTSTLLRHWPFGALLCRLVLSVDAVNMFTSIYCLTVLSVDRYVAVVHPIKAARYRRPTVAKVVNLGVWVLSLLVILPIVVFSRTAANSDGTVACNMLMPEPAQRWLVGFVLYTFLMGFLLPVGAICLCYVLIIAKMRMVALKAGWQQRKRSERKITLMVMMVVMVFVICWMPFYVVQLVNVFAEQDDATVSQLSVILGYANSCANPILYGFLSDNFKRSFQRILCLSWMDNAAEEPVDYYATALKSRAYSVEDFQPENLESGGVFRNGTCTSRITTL
Chain of Somatostatin receptor type 2 (Mus musculus, UniProt P30875) (P30875 whole entry): as the sequence (P30680 whole entry) above, with L3M, T4S, F8L, I15V, P16S, G168C, A335T counted along it
Chain of Somatostatin receptor type 3 (P30936 whole entry): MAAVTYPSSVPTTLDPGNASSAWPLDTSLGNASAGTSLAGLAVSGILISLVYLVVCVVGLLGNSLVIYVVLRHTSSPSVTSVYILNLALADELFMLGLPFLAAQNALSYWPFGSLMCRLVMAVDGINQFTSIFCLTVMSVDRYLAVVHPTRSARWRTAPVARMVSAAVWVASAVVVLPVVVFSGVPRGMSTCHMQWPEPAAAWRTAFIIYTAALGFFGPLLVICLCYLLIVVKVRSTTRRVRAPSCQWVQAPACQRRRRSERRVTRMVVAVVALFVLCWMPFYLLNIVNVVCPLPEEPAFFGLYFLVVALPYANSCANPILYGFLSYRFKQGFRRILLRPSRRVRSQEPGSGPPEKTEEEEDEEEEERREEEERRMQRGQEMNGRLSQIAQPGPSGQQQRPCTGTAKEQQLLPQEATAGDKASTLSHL

In assay [1], `C[C@@H](O)[C@@H]1NC(=O)[C@H](CCCCN)NC(=O)[C@@H](Cc2c[nH]c3ccccc23)NC(=O)[C@H](Cc2ccccc2)NC(=O)[C@@H](NC(=O)[C@H](N)Cc2ccccc2)CSSC[C@@H](C(=O)N[C@H](CO)[C@@H](C)O)NC1=O` yielded a Ki of 14 nM.

On to `CC(C)[C@@H]1NC(=O)[C@H](CCCCN)NC(=O)[C@@H](Cc2c[nH]c3ccccc23)NC(=O)[C@H](Cc2ccc(O)cc2)NC(=O)[C@@H](NC(=O)[C@H](N)Cc2ccccc2)CSSC[C@@H](C(=O)N[C@@H](Cc2c[nH]c3ccccc23)C(N)=O)NC1=O` [CAS_71306] (H-[dF]CY[dW]KVCW-NH2; disulfide 2-7), for which the Ki in assay [1] came out at 87 nM; in assay [2] it was 0.85 nM; in assay [3] it was 351 nM; in assay [4], 481 nM.

The molecule `CC(C)NCc1ccc(C[C@H]2NC(=O)[C@H](Cc3c[nH]c4ccccc34)NC(=O)C(Cc3ccccc3)NC(=O)C(Cc3ccccc3)NC(=O)C(CCCCN)NC(=O)[C@H](N)CSSC[C@H](C(=O)O)NC(=O)[C@@H](CO)NC(=O)[C@H](C(C)O)NC(=O)[C@@H](Cc3ccccc3)NC(=O)C(C(C)O)NC2=O)cc1` (some centres not stated) [CH-275] (H-[dC][ξK][ξF][ξF]W[X2][ξT][dF][Thr(3ξ)][dS][dC]-OH; disulfide 1-11) registered an inhibition constant (Ki) in assay [5] of 632 nM.

As for `CC(C)[C@@H]1NC(=O)[C@H](CCCCN)NC(=O)[C@@H](Cc2c[nH]c3ccccc23)NC(=O)[C@H](Cc2ccc(O)cc2)NC(=O)[C@@H](NC(=O)[C@H](N)Cc2ccc3ccccc3c2)CSSC[C@@H](C(=O)N[C@H](C(N)=O)[C@@H](C)O)NC1=O` [3-(2-Naphtyl)-D-Ala-L-Cys(1)-L-Tyr-D-Trp-L-Lys-L-Val-L-Cys(1)-L-Thr-NH2], the figures for the Ki in assay [1], in assay [2] and in assay [5] were 115 nM, 1.47 nM and 23 nM, respectively.

In the case of `CC(C)[C@H](NC(=O)[C@H](CCCCN)NC(=O)[C@@H](Cc1c[nH]c2ccccc12)NC(=O)[C@H](Cc1ccc(O)cc1)NC(=O)[C@H](Cc1ccccc1)NC(=O)[C@H](N)Cc1ccccc1)C(=O)N[C@@H](Cc1ccccc1)C(=O)N[C@H](Cc1cccc2ccccc12)C(N)=O` [BIM 23056] (H-[dF]FY[dW]KVF[d1Nal]-NH2), the Ki in assay [1] is 272 nM; in assay [2], 3400 nM; in assay [6], 132 nM; in assay [3] it was 174 nM; in assay [4] it was 692 nM; in assay [7], 12 nM.

With `CSCC[C@H](NC(=O)[C@H](C)NC(=O)[C@@H]1CCCN1C(=O)[C@H](CC(N)=O)NC(=O)[C@H](CO)NC(=O)[C@H](CC(N)=O)NC(=O)[C@H](C)NC(=O)[C@@H](N)CO)C(=O)N[C@@H](C)C(=O)N1CCC[C@H]1C(=O)N[C@@H](CCCNC(=N)N)C(=O)N[C@@H](CCC(=O)O)C(=O)N[C@@H](CCCNC(=N)N)C(=O)N[C@@H](CCCCN)C(=O)N[C@@H](C)C(=O)NCC(=O)N[C@H]1CSSC[C@@H](C(=O)O)NC(=O)[C@H](CO)NC(=O)[C@H]([C@@H](C)O)NC(=O)[C@H](Cc2ccccc2)NC(=O)[C@H]([C@@H](C)O)NC(=O)[C@H](CCCCN)NC(=O)[C@H](Cc2c[nH]c3ccccc23)NC(=O)[C@H](Cc2ccccc2)NC(=O)[C@H](Cc2ccccc2)NC(=O)[C@H](CC(N)=O)NC(=O)[C@H](CCCCN)NC1=O` [L-Ser-L-Ala-L-Asn-L-Ser-L-Asn-L-Pro-L-Ala-L-Met-L-Ala-L-Pro-L-Arg-L-Glu-L-Arg-L-Lys-L-Ala-Gly-L-Cys(1)-L-Lys-L-Asn-L-Phe-L-Phe-L-Trp-L-Lys-L-Thr-L-Phe-L-Thr-L-Ser-L-Cys(1)-OH], in assay [1], affinity was put at a Ki of 0.81 nM.

In the case of `CC[C@@H]1NC(=O)[C@H](CCCCN)NC(=O)[C@@H](Cc2c[nH]c3ccccc23)NC(=O)[C@H](Cc2ccc(O)cc2)NC(=O)[C@@H](NC(=O)[C@H](N)Cc2ccccc2)CSSC[C@@H](C(=O)N[C@H](C(N)=O)[C@@H](C)O)NC1=O` [D-Phe-L-Cys(1)-L-Tyr-D-Trp-L-Lys-L-Abu-L-Cys(1)-L-Thr-NH2], the Ki was 92 nM in assay [1], 0.57 nM in assay [2] and 14 nM in assay [5].

Turning to `C[C@@H](O)[C@@H]1NC(=O)[C@H](CCCCN)NC(=O)[C@@H](Cc2c[nH]c3ccccc23)NC(=O)[C@H](Cc2ccccc2)NC(=O)[C@H](Cc2ccccc2)NC(=O)[C@H](N)CSSC[C@H](C(N)=O)NC(=O)[C@H](Cc2ccccc2)NC1=O`, the inhibition constant Ki in assay [1] is 4.1 nM; in assay [2], 101 nM; in assay [6], 1.49 nM and 11 nM; in assay [4], 582 nM; in assay [7] it was 2.18 nM.

`CC(C)NCc1ccc(C[C@@H]2NC(=O)[C@@H](Cc3c[nH]c4ccccc34)NC(=O)[C@H](Cc3ccccc3)NC(=O)[C@H](Cc3ccccc3)NC(=O)[C@H](CCCCN)NC(=O)[C@@H](N)CSSC[C@@H](C(=O)O)NC(=O)[C@H](CO)NC(=O)[C@H]([C@@H](C)O)NC(=O)[C@H](Cc3ccccc3)NC(=O)[C@H]([C@@H](C)O)NC2=O)cc1` [CH-275] (H-CKFF[dW][Phe(4-CH2NHiPr)]TFTSC-OH; disulfide 1-11): the Ki is 1000 nM in assay [8]; 1000 nM in assay [6]; 874 nM in assay [3]; 1.8 nM and 4.9 nM in assay [4].

As for `CC(O)[C@@H](NC(=O)[C@H](CCCCN)NC(=O)[C@@H](Cc1c[nH]c2ccccc12)NC(=O)[C@H](Cc1ccccc1)NC(=O)C(Cc1ccccc1)NC(=O)C(N)CS)C(=O)NC(Cc1ccccc1)C(=O)NC(CS)C(N)=O` (some centres not stated) [BIM 23313], the Ki worked out at 11.2 nM in assay [1]; 45 nM in assay [2]; 9.88 nM in assay [5]; 55.3 nM in assay [3]; 151 nM in assay [4]; 0.27 nM in assay [7].

As for `CC(C)C1NC(=O)C(CCCCN)NC(=O)C(Cc2c[nH]c3ccccc23)NC(=O)C(Cc2ccc(O)cc2)NC(=O)C(NC(=O)C(N)Cc2ccccc2)CSSCC(C(=O)NC(Cc2c[nH]c3ccccc23)C(N)=O)NC1=O` (configuration not stated) [CAS_71306] (H-FCYWKVCW-NH2; disulfide 2-7; configuration not given here), the affinity in assay [5], expressed as Ki, was 6.8 nM.

`CC(C)[C@H](NC(=O)[C@H](CCCCN)NC(=O)[C@@H](Cc1c[nH]c2ccccc12)NC(=O)[C@H](Cc1ccc(O)cc1)NC(=O)[C@H](Cc1ccccc1)NC(=O)[C@@H](N)Cc1ccccc1)C(=O)N[C@@H](Cc1ccccc1)C(=O)N[C@H](Cc1cccc2ccccc12)C(N)=O` [BIM 23056] (H-FFY[dW]KVF[d1Nal]-NH2) returned an inhibition constant (Ki) in assay [5] of 536 nM.

In turn, `CC(O)[C@H](CO)NC(=O)[C@@H]1CSSCC(NC(=O)C(N)Cc2ccccc2)C(=O)N[C@H](Cc2ccccc2)C(=O)N[C@H](Cc2c[nH]c3ccccc23)C(=O)N[C@H](CCCCN)C(=O)N[C@H](C(C)O)C(=O)N1` (some centres not stated) yielded a Ki in assay [5] of 17 nM. Compared with the last molecule, the Ki is about 32-fold lower.

With `C[C@@H](O)[C@@H]1NC(=O)[C@H](CCCCN)NC(=O)[C@@H](Cc2c[nH]c3ccccc23)NC(=O)[C@H](Cc2c[nH]c3ccccc23)NC(=O)[C@H](Cc2ccccc2)NC(=O)CCCCCCNC(=O)[C@H](Cc2ccccc2)NC1=O` [L-362855] (cyclo([Ahp]FW[dW]KTF)), the Ki in assay [1] was found to be 33 nM; in assay [2], 12 nM; in assay [5], 51 nM; in assay [3], 467 nM; in assay [7] it was 0.76 nM.

`CC(O)[C@H]1NC(=O)[C@H](CCCCN)NC(=O)[C@H](Cc2c[nH]c3ccccc23)NC(=O)[C@H](Cc2ccccc2)NC(=O)[C@@H](Cc2ccccc2)NC(=O)[C@H](N)CSSC[C@H](C(N)=O)NC(=O)[C@H](Cc2ccccc2)NC1=O` (some centres not stated): the affinity in assay [5] corresponds to a Ki of 3.4 nM.

Regarding `CC(O)[C@@H](NC(=O)[C@H](CCCCN)NC(=O)[C@@H](Cc1c[nH]c2ccccc12)NC(=O)[C@H](Cc1ccc(O)cc1)NC(=O)C(Cc1ccccc1)NC(=O)C(N)CS)C(=O)NC(Cc1ccccc1)C(=O)NC(CS)C(N)=O` (some centres not stated) [BIM 23295], the inhibition constant Ki came to 5.7 nM in assay [1]; 57 nM in assay [2]; 0.65 nM in assay [5]; 3.36 nM in assay [3]; 86.8 nM in assay [4]; 0.34 nM in assay [7].

Consider `C[C@@H](O)[C@H](NC(=O)[C@H](Cc1ccccc1)NC(=O)[C@@H](NC(=O)[C@H](CCCCN)NC(=O)[C@@H](Cc1c[nH]c2ccccc12)NC(=O)[C@H](Cc1ccccc1)NC(=O)[C@H](Cc1ccccc1)NC(=O)[C@H](N)Cc1ccccc1)[C@@H](C)O)C(N)=O` [CAS_133073-82-2] (H-[dF]FF[dW]KTFT-NH2), for which the inhibition constant (Ki) in assay [1] is 3.5 nM; in assay [2] it was 69 nM; in assay [6] it was 11.9 nM and 5.58 nM; in assay [5], 2.4 nM.

In turn, `CC(C)C1NC(=O)C(CCCCN)NC(=O)C(Cc2c[nH]c3ccccc23)NC(=O)C(Cc2ccc(O)cc2)NC(=O)C(C)N(C)C(=O)C(Cc2ccccc2)NC1=O` (configuration not stated) [CAS_3086456] registered a Ki in assay [5] of 72 nM.

In the case of `CC(C)[C@@H]1NC(=O)[C@H](CCCCN)NC(=O)[C@@H](Cc2c[nH]c3ccccc23)NC(=O)[C@H](Cc2ccc(O)cc2)NC(=O)[C@H](C)N(C)C(=O)[C@H](Cc2ccccc2)NC1=O` [CAS_3086456], the Ki turned out to be 45 nM in assay [1], 0.48 nM in assay [2] and 15.5 nM in assay [7].
